We go through one compound from publication PMC8746798, “Evaluation of 2-Thioxoimadazolidin-4-one Derivatives as Potent Anti-Cancer Agents through Apoptosis Induction and Antioxidant Activation: In Vitro and In Vivo Approaches” (Molecules, 2021).

Structures are written as SMILES.

Series [1] can be described thus: Histopathological examination of liver and kidney (H&E). It counts as in vivo, mice. The procedure: (§1) We randomly divided 50 mice into groups 5 groups (10 mice in each group): normal control (I) (mice injected intraperitoneally with the same volume of solvent for 14 consecutive days); group II, a group of normal mice treated with compound 4 (mice injected intraperitoneally with newly produced compound 4 at a dose of 6 mg/kg per day for 14 days); group III, solid tumor group (mice were implanted with solid tumor); group IV, group were treated with 5-FU (after 10 days of tumor implantation, mice were treated with 6 mg/kg only once); and group V, solid tumor group were treated with compound 4 (after 10 days of tumor implantation, mice were treated with 6 mg/kg only once). after one day of the previous treatment, 10 mice from each group were sacrificed and tumor weight, tumor volume (length and width of solid femoral tumor), blood and liver samples were obtained from each group. A portion of each blood sample taken was used for complete blood count (CBC) and the rest was centrifuged to obtain the serum. Serum was used for biochemical parameter estimation. The livers were rapidly dissected, washed with isotonic saline, and dried. The experiment design is summarized in Supplementary Figure S3.
Complete blood counts (CBCs) were counted using an AbbottCELLDYN®1800 Automated Hematology Analyzer (Abbott Park, IL, USA) equipped with an off-the-shelf kit (Abbott Laboratories, Abbott Park, IL, USA). For microscopic histopathological examination, tumor and kidney slices were maintained in 10% formalin, dehydrated with graduated alcohol, embedded in paraffin sections, H&E stained, and hematoxylin stained.
Specimens from mice liver cells were fixed in 10% formalin saline. Then, the samples were dehydrated with ascending series of ethanol and embedded in paraffin. A […] thick section was stained with hematoxylin and eosin and examined under a light microscope.

Series [2] in a line: Serum biochemical parameters in mice. Type of series: in vivo. As to conditions: 6 mg/Kg BW. How it is done:
as §1
Evaluation of the activities of aspartate aminotransferase (AST) and alanine aminotransferase (ALT) using a commercial kit (ELITech Clinical Systems, France). The serum albumin level was measured using a kit obtained from STANBIO Company (USA). A commercial kit from the BioDiagnostic Company (Cairo, Egypt) was used to evaluate creatinine and urea levels.

Another series deals with HepG2 cells. In words: DNA content flow cytometry cell cycle analysis. Type of series: cell-based, human. To be noted: HepG2, IC50 = 0.017 μM, 48 h; control 12.26%. From the text:
Apoptotic cells were quantified using double staining with annexin V and PI on flow cytometry. […] The detailed methodology of flow cytometric analysis (annexin V/PI differential apoptosis/necrosis, DNA content–flow cytometry aided cell cycle) is provided in the Supplementary Materials.
Supplementary materials for detailed methodology
Evaluation of 2-thioxoimadazolidin-4-one Derivatives as Potent
Anti-cancer Agents Through Apoptosis Induction and Antioxi-dant Activation: In vitro and In vivo Approaches
Mohamed S. Nafie 1,*, Ahmed I. Khodair 2,*, Hebat Allah Y. Hassan 3, Noha M. Abd El-Fadeal 4, Hanin A. Bogari 5 , Sameh S. Elhady 6 and Safwat A. Ahmed 3,7,* […]
Apoptosis and necrosis cell populations are determined using Annexin V-FITC apop-tosis detection kit (Abcam Inc., Cambridge Science Park, Cambridge, UK) coupled with 2 fluorescent channels flowcytometry. […]
Then, cells are incubated in dark with 0.5 ml of Annexin V-FITC/PI solution for 30 min in dark at room temperature according to manufacturer protocol. After staining, cells are injected via ACEA Novocyte™ flowcytometer (ACEA Biosciences Inc., San Diego, CA, USA) and analyzed for FITC and PI fluorescent signals using FL1 and FL2 signal detector, respectively (λex/em 488/530 nm for FITC and λex/em 535/617 nm for PI). […]
In general terms: A flow cytometer gives signals particle by particle.

Series [3] is described as follows: Hepatic oxidant and antioxidant assessment. It counts as in vivo. To be noted: liver homogenate, SEC-bearing mice, 6 mg/kg BW. The procedure:
as §1
In liver tissue homogenate, a standard commercial kit (BioDiagnostic, Cairo, Egypt) was used to evaluate oxidation and antioxidant parameters according to its methodology, as previously published in Nafie et al., 2020 [57]. Lipid peroxidation (MDA) and nitric oxide (NO) are oxidants, while reduced glutathione (GSH), catalase (CAT), and superoxide dismutase (SOD) are antioxidants.

On to `O=C1NC(=S)N(c2ccc(O)cc2)/C1=C/c1cccs1` [Compound 4, (E)-1-(4-Hydroxyphenyl)-5-(thiophen-2-ylmethylene)-2-thioxoimidazolidin-4-one], for which, in series [1] (SEC-bearing mice treated), the kidney histopathology result was “almost normal, intact renal corpuscles and tubules”. The liver histopathology entry was “liver lobules looking normal” in series [1] (SEC-bearing mice treated); “normal-looking liver lobules; some hepatocytes showed a hydropic degeneration and a balloon degeneration” in series [1] (normal mice treated). Moreover, the Creatinine in series [2] (SEC-bearing mice) amounted to 1.0 ± 0.1 mg/dL; in series [2] (normal mice, normal control 1.6 ± 0.2), 1.1 ± 0.2 mg/dL. The Albumin in series [2] (SEC-bearing mice, SEC control 4.01 ± 0.4) came to 3.43 ± 0.1 g/dL; in series [2] (normal mice, normal control 4.4 ± 0.4), 4.4 ± 0.8 g/dL. For the same compound, the “Total Protein” value in series [2] (SEC-bearing mice, SEC control 6.6 ± 0.4) turned out to be 7.4 ± 0.2 g/dL; in series [2] (normal mice, normal control 6.9 ± 0.4), 6.9 ± 1.5 g/dL. Also, the Urea in series [2] (SEC-bearing mice, SEC control 25.2 ± 2.3) is recorded as 27 ± 1.5 mg/dL; in series [2] (normal mice, normal control 27.8 ± 2.6) it was 28.13 ± 2.7 mg/dL. Moreover, the AST is 37.8 ± 8.4 U/L in series [2] (SEC-bearing mice, SEC control 48.9 ± 5.5) and 44.9 ± 10.8 U/L in series [2] (normal mice, normal control 37.4 ± 2.8). In addition, the ALT is 37.4 ± 10.4 U/L in series [2] (SEC-bearing mice, SEC control 50 ± 2.7) and 43.25 ± 7.4 U/L in series [2] (normal mice, normal control 35.3 ± 3.8). Moreover, in the series with HepG2 cells, the “% cells in G2/M phase” value stood at 21.15%. Moreover, the “GSH (antioxidant)” value in series [3] (SEC control 18.23) amounted to 39.27 mg/g Tissue. In addition, in series [3] (SEC control 21.69), the “CAT (antioxidant)” value is listed as 46.9 U/g Tissue. For the same compound, the “SOD (antioxidant)” value in series [3] (SEC control 27.36) worked out at 48.69 U/g Tissue. The “NO (oxidative stress)” value in series [3] (SEC control 79.69) stood at 42.38 U/g Tissue. The “MDA (oxidative stress)” value in series [3] (SEC control 98.39, n = 6) is 73.36 nmol/g Tissue.
